Columns and labels:
[1] = test system: PC43–10 CHO cells expressing human RFC; experiment: Growth inhibition; conditions: CHO subline expressing human RFC; drug up to 1000 nM, up to 96 h; mean (SE)
[2] = test system: NCI-IGROV1 EOC xenografts; experiment: In vivo efficacy trial, subcutaneous NCI-IGROV1 EOC xenografts in SCID mice; conditions: for Antitumor activity toward NCI-IGROV1 tumors in vivo (in words): SCID mice, folate-deficient diet
FRβ = FRβ (Homo sapiens, UniProt P14207); experiment: Competitive [3H]folic acid binding to FRβ in D4 CHO cells; conditions: 50 nM [3H]folic acid, 15 min, 0 °C
Sequence of FRβ (P14207 17-255): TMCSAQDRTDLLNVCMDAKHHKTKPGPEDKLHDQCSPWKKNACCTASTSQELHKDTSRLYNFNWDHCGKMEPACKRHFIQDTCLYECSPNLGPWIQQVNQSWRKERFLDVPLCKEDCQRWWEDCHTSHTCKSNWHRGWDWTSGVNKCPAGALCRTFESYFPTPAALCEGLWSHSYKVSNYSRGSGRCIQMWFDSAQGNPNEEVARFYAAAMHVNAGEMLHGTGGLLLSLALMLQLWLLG

FRα = FRα (Homo sapiens, UniProt P15328); experiment: Competitive [3H]folic acid binding to FRα in RT16 CHO cells; conditions: 50 nM [3H]folic acid, 15 min, 0 °C
Sequence of FRα (P15328 25-257): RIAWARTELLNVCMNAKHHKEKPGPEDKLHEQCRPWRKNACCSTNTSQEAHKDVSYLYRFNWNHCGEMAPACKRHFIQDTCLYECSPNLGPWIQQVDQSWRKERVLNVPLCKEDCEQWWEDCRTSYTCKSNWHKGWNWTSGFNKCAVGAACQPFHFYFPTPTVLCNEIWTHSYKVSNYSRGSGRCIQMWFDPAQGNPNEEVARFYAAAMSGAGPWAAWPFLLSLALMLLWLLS

[3] = test system: D4 CHO cells expressing human FRβ; conditions: for IC50: Homo sapiens, CHO, read-out: IC50 growth inhibition, FRβ, D4; for IC50 growth inhibition, FRβ, D4: without folic acid, mean (SE)
[4] = test system: KB human tumor cells (RFC/FRα/PCFT); experiment: Growth inhibition of KB human tumor cells, with and without 200 nM folic acid; conditions: without folic acid; mean (SE)
[5] = test system: RT16 CHO cells expressing human FRα
PCFT = molecular target: T1, PCFT (Homo sapiens, UniProt Q96NT5); experiment: Competitive inhibition of [3H]MTX uptake by PCFT in R2/PCFT4 cells; type: cell-based
T1 sequence (Q96NT5 1-459): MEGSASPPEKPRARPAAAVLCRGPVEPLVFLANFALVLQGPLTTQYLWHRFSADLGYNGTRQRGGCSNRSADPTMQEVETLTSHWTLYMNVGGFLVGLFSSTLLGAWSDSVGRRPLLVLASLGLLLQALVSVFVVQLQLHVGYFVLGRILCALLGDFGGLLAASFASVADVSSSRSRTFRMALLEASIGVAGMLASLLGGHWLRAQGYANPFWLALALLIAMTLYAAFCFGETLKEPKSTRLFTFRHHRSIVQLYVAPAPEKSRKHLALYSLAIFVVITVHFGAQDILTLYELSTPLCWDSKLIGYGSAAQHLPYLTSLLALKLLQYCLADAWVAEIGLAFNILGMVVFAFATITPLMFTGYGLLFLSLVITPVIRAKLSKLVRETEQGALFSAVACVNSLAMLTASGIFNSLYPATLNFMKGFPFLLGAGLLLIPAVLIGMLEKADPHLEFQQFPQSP

For Nc1nc2[nH]c(CCCCc3ccc(C(=O)N[C@@H](CCC(=O)O)C(=O)O)cc3)cc2c(=O)[nH]1 [Compound 1, reference compound], the “IC50 growth inhibition, RFC, PC43–10” value [1] was “no activity”.
With Nc1nc2[nH]c(CCCCc3ccc(C(=O)N[C@@H](CCC(=O)O)C(=O)O)nc3)cc2c(=O)[nH]1 [Compound 6, (5-(4-(2-Amino-4-oxo-4,7-dihydro-3H-pyrrolo[2,3-d]pyrimidin-6-yl)butyl)picolinoyl)-L-glutamic Acid] the “Antitumor activity toward NCI-IGROV1 tumors in vivo (in words)” value [2] was “excellent activity”, the “Antitumor activity, standard (high folate) diet” value ([2]; mice on standard folate-replete diet) was “abolished” and the “IC50 growth inhibition, RFC, PC43–10” value [1] was “no activity”.
For Nc1nc2[nH]c(CCCCc3cccc(C(=O)N[C@@H](CCC(=O)O)C(=O)O)n3)cc2c(=O)[nH]1 [Compound 7, (6-(4-(2-Amino-4-oxo-4,7-dihydro-3H-pyrrolo[2,3-d]pyrimidin-6-yl)butyl)picolinoyl)-L-glutamic Acid], the “Relative binding affinity to FRβ (vs folic acid)” value (FRβ) was “sharply reduced”, the “Relative binding affinity to FRα (vs folic acid)” value (FRα) was “sharply reduced” and the IC50 [3] was > 1000 nM. For the same compound, the “IC50 growth inhibition, FRβ, D4” value [3] was “inactive”.
For Nc1nc2[nH]c(CCC#Cc3ccc(C(=O)N[C@@H](CCC(=O)O)C(=O)O)nc3)cc2c(=O)[nH]1 [Compound 9, (5-(4-(2-Amino-4-oxo-4,7-dihydro-3H-pyrrolo[2,3-d]pyrimidin-6-yl)but-1-yn-1-yl)picolinoyl)-L-glutamic Acid], the “IC50 growth inhibition, RFC/FRα/PCFT, KB” value [4] was “inactive” and the “Fold less active than 6, FRα-expressing CHO cells” value [5] was ~ 4 fold.
In the case of Nc1nc2[nH]c(CCC#Cc3cccc(C(=O)N[C@@H](CCC(=O)O)C(=O)O)n3)cc2c(=O)[nH]1 [Compound 10, (6-(4-(2-Amino-4-oxo-4,7-dihydro-3H-pyrrolo[2,3-d]pyrimidin-6-yl)but-1-yn-1-yl)picolinoyl)-L-glutamic Acid], the IC50 [3] is reported as > 1000 nM, the “IC50 growth inhibition, FRβ, D4” value [3] is reported as “inactive” and the IC50 ([5]; Homo sapiens, RT16, read-out: IC50 growth inhibition, FRα, RT16) is reported as > 1000 nM. For the same compound, the “IC50 growth inhibition, FRα, RT16” value ([5]; without folic acid, mean (SE)) was “no activity”.
In the case of Nc1nc2[nH]cc(CCc3ccc(C(=O)N[C@@H](CCC(=O)O)C(=O)O)cc3)c2c(=O)[nH]1 [PMX, N-{4-[2-(2-amino-3,4-dihydro-4-oxo-7H-pyrrolo-[2,3-d]pyrimidin-5-yl)ethyl]benzoyl}-L-glutamic acid, reference compound], the inhibition at 10 µM (PCFT; R2/PCFT4, pH 5.5, read-out: Inhibition of [3H]MTX transport by PCFT) is reported as ≥ 90% and the “Antitumor activity toward NCI-IGROV1 tumors in vivo (in words)” value [2] is reported as “inactive”.
For CN(Cc1cnc2nc(N)nc(N)c2n1)c1ccc(C(=O)N[C@@H](CCCNC(=O)c2ccccc2C(=O)O)C(=O)O)cc1 [PT523, Nα-(4-amino-4-deoxypteroyl)-Nδ-hemiphthaloyl-L-ornithine], the “Effect on [3H]MTX uptake by PCFT” value (PCFT; pH 5.5 and pH 6.8, 1 or 10 μM) was “no effect”.

Reference: publication PMC6382392 (Journal of medicinal chemistry, 2018)
